Reference: patent US20220370326A1, “TOPICAL COMPOSITIONS AND METHODS OF USING SAME AGAINST MITOCHONDRIAL FRAGMENTATION” (Conopco, Inc., d/b/a UNILEVER, priority 2019, published 2022)
Marks after values point to notes of the source that are not given here.

Test system: human keratinocytes
Test: Mitochondrial fragmentation in keratinocytes - UV study (TPEF imaging of NADH, Fourier PSD analysis)
Type: cell-based
Details: B3 10 mM, SAMe 500 uM; for Effect on mitochondrial fragmentation in Non UV-exposed keratinocytes (in words) / Effect on UV-induced mitochondrial fragmentation (in words): significance P </= 0.05; for Mitochondrial Fragmentation, (+) UV (4 days) / Mitochondrial Fragmentation, (−) UV (3 days): human keratinocytes, higher value = less protection; for Mitochondrial Fragmentation, (+) UV (4 days): 4 days of daily UV exposure (4 J/cm^2 UVA+UVB, 14 min); for Mitochondrial Fragmentation, (−) UV (3 days): not UV-exposed, 3 days of treatment; for Effect on UV-induced mitochondrial fragmentation (in words): keratinocytes, UV exposure for 4 days
Method: Test compounds (B3 and SAMe) were purchased from Sigma (St. Loius, MO). Cell culture growth media (Epilife media with calcium (Cat#MEPI500CA) and Epilife media supplement HKGS 100X (Cat#S-001-5)) was purchased from Thermofisher (Waltham, Mass.). Cryopreserved human keratinocytes cells (˜1×10^6 cells) were plated on 12-well glass bottom plates at a confluence of ˜15%. The cells were suspended in primary keratinocyte growth media (Epilife media with calcium) and incubated @ 37° C. for 1d (Day 0). At Day 1, cells began treatment with supplemented primary keratinocyte growth media (Epilife media with calcium supplemented with HKGS 100X; […]) without test compound (Control sample) or containing test compounds B3 (10 mM), SAMe (500 μM) or B3 (10 mM)+SAMe (500 uM). Cell treatment (25m1 media with or without test compounds as above) continued daily for 2 additional days (Days 2 and 3). On Day 4, cells were subjected to UV treatment by replacing media with PBS, exposing cells to UV light (4 J/cm^2 of UVA+UVB) for 14 min and feeding cells with media with or without corresponding test compounds as defined above. UV treatments continued daily for 3 additional days (Days 5, 6 and 7). Image acquisition and analysis on all wells to assess mitochondrial fragmentation was conducted on Day 1, 3, 5 and 8.
For two-photon excited fluorescence (TPEF) imaging, cell cultures were placed in microscope-compatible micro-incubator system, which maintained 37° C. within a humidified environment throughout the imaging session. HEPES buffering agent (Sigma) was added to cell cultures before imaging, which maintained the pH of cell cultures throughout the imaging session. Images were obtained using a Leica TCS SP8 confocal microscope equipped with a tunable (680-1300 nm) titanium-sapphire laser (InSight Deep See; Spectra Physics; Mountain View, Calif.). Images (1024×1024 pixels; 386×386 μm) were acquired using water-immersion 25x objective (NA 0.95; 2.4 mm working distance), with simultaneous collection by two non-descanned photomultiplier tube (PMT) detectors using a filter cube containing filters from Chroma (Bellows Falls, VT), including a 700 nm short pass filter (ET700SP-2P) and a 495 nm dichroic mirror (495DCXR). To isolate NADH fluorescence, a 460(±20) nm emission filter (Chroma, ET460/40M-2P), corresponding to the NADH emission peak, was placed before one of the non-descanned detectors. NADH fluorescence images were acquired from this 460 nm channel using 755 nm excitation. FAD fluorescence was isolated using a 525(±25) nm emission filter (Chroma, ET525/50M-2P) for the other non-descanned detector and 860 nm excitation. The two-photon action cross section of NADH decreases by several orders of magnitude between 755 nm and 860 nm excitation, enabling an efficient isolation of FAD at longer wavelengths. The fluorescence lifetime images (512×512 pixels; 386×386 μm) corresponding to NADH were acquired under the same excitation and emission settings, using SymPho software. PMT gain was adjusted for each image to maximize contrast while preventing a saturated pixel intensity value. The PMT gain and laser power were recorded for each image and used to normalize fluorescence intensity.
To assess mitochondrial fragmentation, a previously-established Fourier transform technique was used to obtain power spectral density (PSD) curves from each image. […]

Structure (SMILES)	Effect on mitochondrial fragmentation in Non UV-exposed keratinocytes (in words)	Mitochondrial Fragmentation, (+) UV (4 days)	Mitochondrial Fragmentation, (−) UV (3 days)	Effect on UV-induced mitochondrial fragmentation (in words)
C[S+](CC[C@H](N)C(=O)[O-])C[C@H]1O[C@@H](n2cnc3c(N)ncnc32)[C@H](O)[C@@H]1O (stereo partly drawn) [SAMe, S-adenosyl-L-methionine]	does not significantly reduce mitochondrial fragmentation	1.58 ^c,e	1.30	increases mitochondrial fragmentation beyond UV-exposed levels
NC(=O)c1cccnc1 [B3, Nicotinamide]	does not significantly reduce mitochondrial fragmentation	1.34 ^d	1.18	effective at reducing this UV-induced effect down to control levels
